Results published in US20230114728A1 (Venatorx Pharmaceuticals, Inc., priority 2019, published 2023).

Experiments:
Assay in all cases: Broth microdilution MIC in CAMHB
Format in all cases: cell-based
[1] = test system: K. pneumoniae SI-117 producing VIM-1; details: Klebsiella pneumoniae, read-out: Minimum Inhibitory Concentration, K. pneumoniae SI-117
Outline: (§1)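 Standard CLSI-style microdilution in cation-adjusted Mueller Hinton broth, 2-fold dilution series, incubated 16-20 h at 37° C; endpoint was visual absence of growth.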

[2] = test system: P. aeruginosa (ΔmexAB-oprM); details: Pseudomonas aeruginosa, read-out: Minimum Inhibitory Concentration, P. aeruginosa ΔmexAB-OprM
Outline: as §1

[3] = test system: A. baumannii ATCC 19606; details: Acinetobacter baumannii, ATCC19606; MHB; read-out: Minimum Inhibitory Concentration, A. baumannii ATCC 19606
Outline: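 Hyper-permeable or efflux-deficient strains serve to probe outer-membrane penetration. Growth inhibition is scored visually after 16-20 h at 37° C in CAMHB, starting from 2-8×10^5 CFU/mL.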

[4] = test system: K. pneumoniae 848844 producing SHV-11 and KPC-2; details: Klebsiella pneumoniae, read-out: Minimum Inhibitory Concentration, K. pneumoniae 848844
Outline: as §1

[5] = test system: P. aeruginosa ATCC 35151; details: Pseudomonas aeruginosa, ATCC35151; MHB; hyper-permeable strain; read-out: Minimum Inhibitory Concentration, P. aeruginosa ATCC 35151
Outline: as §1

[6] = test system: E. coli 901C; details: Escherichia coli; E. coli 901C (hyper-permeable); MHB; read-out: Minimum Inhibitory Concentration, E. coli 901C
Outline: as §1

[7] = test system: K. pneumoniae UMM producing SHV-5 and KPC-2; details: Klebsiella pneumoniae, read-out: Minimum Inhibitory Concentration, K. pneumoniae UMM
Outline: as §1

[8] = test system: P. aeruginosa ATCC 27853; details: Pseudomonas aeruginosa, ATCC27853; MHB; read-out: Minimum Inhibitory Concentration, P. aeruginosa ATCC 27853
Outline: as §1

[9] = test system: E. coli AG100; details: Escherichia coli; E. coli AG100 (wild-type parent); MHB; read-out: Minimum Inhibitory Concentration, E. coli AG100
Outline: as §1

[10] = test system: E. coli AG100A; details: Escherichia coli, read-out: Minimum Inhibitory Concentration, E. coli AG100A
Outline: as §1

[11] = test system: E. coli ATCC 25922; details: Escherichia coli, ATCC25922; E. coli ATCC 25922; MHB; read-out: Minimum Inhibitory Concentration, E. coli 25922
Outline: as §1

[12] = test system: E. coli D22; details: Escherichia coli; E. coli D22 (hyper-permeable); MHB; read-out: Minimum Inhibitory Concentration, E. coli D22
Outline: as §1

Measured: MIC

NS(=O)(=O)NC(C(=O)N[C@H]1Cc2ccc(F)c(C(=O)O)c2OB1O)c1ncc(O)cc1F (stereo partly drawn) [Example 43, (3R)-7-fluoro-3-(2-(3-fluoro-5-hydroxypyridin-2-yl)-2-(sulfamoylamino)acetamido)-2-hydroxy-3,4-dihydro-2H-benzo[e][1,2]oxaborinine-8-carboxylic acid]
2 to 4 µg/mL: [5]
> 128 µg/mL: all other assays above

NS(=O)(=O)NC(C(=O)N[C@H]1Cc2cccc(C(=O)O)c2OB1O)c1ccc(C(=O)O)c(F)c1 (stereo partly drawn) [Example 44, (3R)-3-(2-(4-carboxy-3-fluorophenyl)-2-(sulfamoylamino)acetamido)-2-hydroxy-3,4-dihydro-2H-benzo[e][1,2]oxaborinine-8-carboxylic acid]
32 to 64 µg/mL: [5]
> 128 µg/mL: all other assays above

CCN1CCN(C(=O)NC(C(=O)N[C@H]2Cc3cccc(C(=O)O)c3OB2O)c2ccc(C(N)=O)c(O)c2)C(=O)C1=O (stereo partly drawn) [Example 45, (3R)-3-(2-(4-carbamoyl-3-hydroxyphenyl)-2-(4-ethyl-2,3-dioxopiperazine-1-carboxamido)acetamido)-2-hydroxy-3,4-dihydro-2H-benzo[e][1,2]oxaborinine-8-carboxylic acid]
2 to 4 µg/mL: [2] | [6] | [10]
< 0.25 µg/mL: [5] | [12]
32 to 64 µg/mL: [7] | [9] | [11]
> 128 µg/mL: all other assays above

NC(=O)c1ccc(C(NC(=O)N2CCN(CCF)C(=O)C2=O)C(=O)N[C@H]2Cc3cccc(C(=O)O)c3OB2O)cc1O (stereo partly drawn) [Example 46, (3R)-3-(2-(4-carbamoyl-3-hydroxyphenyl)-2-(4-(2-fluoroethyl)-2,3-dioxopiperazine-1-carboxamido)acetamido)-2-hydroxy-3,4-dihydro-2H-benzo[e][1,2]oxaborinine-8-carboxylic acid]
2 to 4 µg/mL: [2] | [6] | [10]
> 128 µg/mL: [3] | [4] | [8]
< 0.25 µg/mL: [5] | [12]
32 to 64 µg/mL: all other assays above

NCCCN1CCN(C(=O)NC(C(=O)N[C@H]2Cc3cccc(C(=O)O)c3OB2O)c2ccc(C(N)=O)c(O)c2)C(=O)C1=O (stereo partly drawn) [Example 47, (3R)-3-(2-(4-(3-aminopropyl)-2,3-dioxopiperazine-1-carboxamido)-2-(4-carbamoyl-3-hydroxyphenyl)acetamido)-2-hydroxy-3,4-dihydro-2H-benzo[e][1,2]oxaborinine-8-carboxylic acid]
< 0.25 µg/mL: [5]
2 to 4 µg/mL: [2] | [10] | [12]
8 to 16 µg/mL: [6]
32 to 64 µg/mL: [8]
> 128 µg/mL: all other assays above

CCN1CCN(C(=O)NC(C(=O)N[C@H]2Cc3cccc(C(=O)O)c3OB2O)c2ccc(C(=O)O)c(OC)c2)C(=O)C1=O (stereo partly drawn) [Example 48, (3R)-3-(2-(4-carboxy-3-methoxyphenyl)-2-(4-ethyl-2,3-dioxopiperazine-1-carboxamido)acetamido)-2-hydroxy-3,4-dihydro-2H-benzo[e][1,2]oxaborinine-8-carboxylic acid]
32 to 64 µg/mL: [11]
2 to 4 µg/mL: [6]
0.5 to 1 µg/mL: [5]
< 0.25 µg/mL: [12]
8 to 16 µg/mL: [2] | [10]
> 128 µg/mL: all other assays above
